# Data: patent publication US12391686B2, “Compounds and uses thereof” (Foghorn Therapeutics Inc., priority 2019, dated 2025)
# What was measured:
# [1] = target: T1, Nanoluciferase-BRD9 fusion protein (3×FLAG-NLuc-BRD9) in SYO-1 cells (Homo sapiens, UniProt Q9H8M2); assay: SYO1 BRD9 NanoLuc Degradation Assay; format: cell-based; conditions: 6 hours; SYO-1 cells expressing 3×FLAG-NLuc-BRD9; top dose 1 μM; read-out: SYO1 BRD9-NanoLuc degradation IC50
# T1 construct: expressed in transfected cells; host or cells: SYO-1
# T1 sequence (Q9H8M2 1-597): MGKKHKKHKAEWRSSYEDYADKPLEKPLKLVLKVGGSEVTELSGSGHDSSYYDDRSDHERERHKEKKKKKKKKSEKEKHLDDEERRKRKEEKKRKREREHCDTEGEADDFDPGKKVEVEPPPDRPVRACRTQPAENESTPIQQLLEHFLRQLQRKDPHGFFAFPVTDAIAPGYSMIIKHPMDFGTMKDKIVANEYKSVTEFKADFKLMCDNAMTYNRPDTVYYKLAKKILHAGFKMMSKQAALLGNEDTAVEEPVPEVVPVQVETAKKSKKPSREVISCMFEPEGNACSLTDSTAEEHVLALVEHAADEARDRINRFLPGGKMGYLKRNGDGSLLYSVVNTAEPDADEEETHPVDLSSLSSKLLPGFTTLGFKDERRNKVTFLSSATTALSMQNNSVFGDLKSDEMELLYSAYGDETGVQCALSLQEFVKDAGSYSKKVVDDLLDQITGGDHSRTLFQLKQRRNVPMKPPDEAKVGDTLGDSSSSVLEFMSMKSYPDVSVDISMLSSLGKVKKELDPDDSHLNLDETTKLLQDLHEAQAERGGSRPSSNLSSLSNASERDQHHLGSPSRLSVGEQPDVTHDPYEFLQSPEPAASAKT
# Summary of the method: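 Stable 3×FLAG-NLuc-BRD9 SYO-1 line, 8000 cells/well, dosed day 1 with 10-point 3-fold dilutions (1 μM final top, duplicates) for 6 h. NanoLuc bioluminescence read with Nano-Glo; % inhibition relative to DMSO (high) and 1 μM reference BRD9 degrader (low) controls.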
# [2] = target: T2, BRD9 bromodomain (Flag-BRD9 P133-K239; Swiss Prot Q9H8M2) (Homo sapiens, UniProt Q9H8M2); assay: BRD9 Bromodomain TR-FRET Competition Binding Assay; conditions: competition with biotinylated BRD9 ligand; 90 minutes at room temperature
# T2 construct: His-Flag-BRD9 (P133-K239); Swiss Prot Q9H8M2; His6 with TEV site (mgsshhhhhhenlyfq/) (N, cleaved yes); made in house
# T2 sequence (Q9H8M2 133-239): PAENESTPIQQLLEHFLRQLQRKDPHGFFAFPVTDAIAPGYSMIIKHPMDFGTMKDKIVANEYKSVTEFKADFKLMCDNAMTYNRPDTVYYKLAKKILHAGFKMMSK
# Summary of the method: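 Tag-cleaved Flag-BRD9 (P133-K239) at 3 nM final displacing 3.75 nM biotinylated ligand, with 7.5 nM APC-streptavidin and 0.2 nM Eu-anti-FLAG, in 50 mM HEPES pH 7.4, 50 mM NaCl, 1 mM TCEP, 0.01% Tween-20, 0.01% BSA. Read after 90 min at room temperature as 665/615 nm ratio.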
SMILES,DC50 [1] [nM],IC50 [2] [nM]
"COc1cc(-c2cn(C)c(=O)c3cnc(N(C)C)cc23)cc(OC)c1CN1CC(S(=O)(=O)NCCN2CCN(c3ccc4c(c3)C(=O)N(C3CCC(=O)NC3=O)C4=O)CC2)C1 (centres unmarked) [Compound D28, 1-([4-[6-(dimethylamino)-2-methyl-1-oxo-2,7-naphthyridin-4-yl]-2,6-dimethoxyphenyl]methyl)-N-(2-[4-[2-(2,6-dioxopiperidin-3-yl)-1,3-dioxoisoindol-5-yl]piperazin-1-yl]ethyl)azetidine-3-sulfonamide]",< 10,< 10
"CNc1cc2c(=O)n(C)cc(-c3cc(OC)c(CN4CCN(C(=O)COc5cccc6c5C(=O)N(C5CCC(=O)NC5=O)C6=O)CC4)c(OC)c3)c2cn1 (centres unmarked) [Compound D29, 4-[2-[4-([2,6-dimethoxy-4-[2-methyl-7-(methylamino)-1-oxo-2,6-naphthyridin-4-yl]phenyl]methyl)piperazin-1-yl]-2-oxoethoxy]-2-(2,6-dioxopiperidin-3-yl)isoindole-1,3-dione]",< 10,< 10
"CNc1cc2c(=O)n(C)cc(-c3cc(OC)c(CN4CCC(CCN5CCN(c6ccc7c(c6)C(=O)N(C6CCC(=O)NC6=O)C7=O)CC5)CC4)c(OC)c3)c2cn1 (centres unmarked) [Compound D30, 5-(4-[2-[1-([2,6-dimethoxy-4-[2-methyl-7-(methylamino)-1-oxo-2,6-naphthyridin-4-yl]phenyl]methyl)piperidin-4-yl]ethyl]piperazin-1-yl)-2-(2,6-dioxopiperidin-3-yl)isoindole-1,3-dione formic acid]",< 10,< 10
"COc1cc(-c2cn(C)c(=O)c3cnc(N(C)CCOCCOCCNc4cccc5c4C(=O)N(C4CCC(=O)NC4=O)C5=O)cc23)cc(OC)c1CN(C)C (centres unmarked) [Compound D31, 4-[10-(5-[4-[(dimethylamino)methyl]-3,5-dimethoxyphenyl]-7-methyl-8-oxo-2,7-naphthyridin-3-yl)-4,7-dioxa-1,10-diazaundecan-1-yl]-2-(2,6-dioxopiperidin-3-yl)isoindole-1,3-dione]",≥ 100,≥ 10
